Data: US11696914B1 (priority 2019, dated 2023)
Where “and” joins values, the source holds several entries; their conditions need not be identical. Identical values can stand only once. Like-named read-outs stand apart in the source and are kept apart here.

How the values were obtained:
[1] = guinea pig, pH 7.4
[2] = mouse, microsomes, 1 h, pH 7.4
[3] = system: murine hepatitis virus (MHV); experiment: microbe, parasite or virus in culture; assay type: cell-based; conditions: Murine coronavirus, read-out: IC50 versus murine hepatitis virus (MHV)
[4] = human, microsomes
[5] = system: Ebola virus/H.sapiens-tc/GIN/2014/Makona-005 (EBOV/Mak); experiment: microbe, parasite or virus in culture; assay type: cell-based; conditions: Zaire ebolavirus, HeLa
[6] = system: Venezuelian equine encephalitis virus; experiment: microbe, parasite or virus in culture; assay type: cell-based; conditions: Venezuelan equine encephalitis virus, Vero 76
[7] = mouse, microsomes
[8] = guinea pig, microsomes
HeLa cells = conditions: human
[9] = system: Marburg virus/H.sapiens-tc/AGO/2005/Ang-1379v (MARV/Ang); experiment: organism not typed; assay type: cell-based; conditions: HeLa
[10] = microsomes; for t1/2: monkey
[11] = human, microsomes, 1 h, pH 7.4
Ebola virus = experiment: microbe, parasite or virus in culture; assay type: cell-based; conditions: Zaire ebolavirus, Vero 76
SARS-CoV-2 = experiment: microbe, parasite or virus in culture; assay type: cell-based
[12] = system: Marburg virus/H.sapiens-tc/KEN/1980/Mt. Elgon-Musoke (MARV/Mus); experiment: organism not typed; assay type: cell-based; conditions: HeLa
in vitro [13] = conditions: African green monkey
Chikungunya virus = experiment: microbe, parasite or virus in culture; assay type: cell-based; conditions: Vero 76
in vitro [14] = conditions: human
[15] = system: Vesicular Stomatitis Virus (VSV) pseudotyped with EBOV glycoprotein; experiment: microbe, parasite or virus in culture; assay type: cell-based, Ebola virus; conditions: HeLa, read-out: IC50, inhibition of EBOV-VSV pseudovirus entry
[16] = system: Marburg virus (MARV), Musoke strain; experiment: organism not typed; assay type: cell-based; conditions: HeLa; n=6; read-out: IC50 ± SEM versus MARV Musoke strain
EBOV Zaire = experiment: microbe, parasite or virus in culture; assay type: cell-based, Ebola virus; conditions: Zaire ebolavirus, HeLa
[17] = system: Ebola virus/H.sapiens-tc/COD/1976/Yambuku-Mayinga (EBOV/May); experiment: microbe, parasite or virus in culture; assay type: cell-based; conditions: Zaire ebolavirus, HeLa
[18] = system: Ebola virus/H.sapiens-tc/COD/1995/Kikwit-9510621 (EBOV/Kik); experiment: microbe, parasite or virus in culture; assay type: cell-based; conditions: Zaire ebolavirus, HeLa
SARS-CoV-2 Spike RBD = SARS-CoV-2 Spike RBD (Severe acute respiratory syndrome coronavirus 2, UniProt P0DTC2); assay type: binding
Hartley guinea pigs = conditions: guinea pig, in vivo
[19] = Hartley, guinea pig, in vivo, po, 30 mg/kg
Vero 76 = conditions: African green monkey
in vivo [20] = conditions: both, Hartley, guinea pig, po
MERS coronavirus = experiment: microbe, parasite or virus in culture; assay type: cell-based; conditions: Middle East respiratory syndrome-related coronavirus, Vero 76
in vitro [21] = conditions: dog
Yellow Fever virus = experiment: microbe, parasite or virus in culture; assay type: cell-based; conditions: Vero 76
Poliovirus 3 = experiment: microbe, parasite or virus in culture; assay type: cell-based; conditions: Enterovirus C, Vero 76
Tacaribe virus = experiment: microbe, parasite or virus in culture; assay type: cell-based; conditions: Mammarenavirus tacaribeense, Vero 76
Influenza A virus H1N1 = experiment: microbe, parasite or virus in culture; assay type: cell-based; conditions: H1N1, MDCK
in vivo [22] = conditions: Hartley, guinea pig, po; for AUC(0-t): AUClast Mean; for Cmax: Cmax Mean; for half-life: T1/2
[23] = Severe acute respiratory syndrome coronavirus 2, A549-ACE2, read-out: IC50 against SARS-CoV-2
[24] = read-out: IC50 against SARS-CoV-2

For `CCN(CC)CCCC(C)Nc1c2ccc(Cl)cc2nc2ccc(OC)cc12` (centres unmarked) [Quinacrine], the “Relative Peak Area/Abundance GPLM” value [1] was 20.7%, the “Relative Peak Area/Abundance MLM” value [2] was 32.0% and the IC50 [3] was 2.3 µM. The Clint [4] was 50.5, the “Dextromethorphan: compound, t1/2 normalized to dextromethorphan control” value [4] was 1.4 and the t1/2 [4] was 0.458 h. It also gave an IC50 [5] of 1.05 ± 0.26 µM, an EC50 [6] of 4 µM and a Clint [7] of 110.0. The “Dextromethorphan: compound, t1/2 normalized to dextromethorphan control” value [7] was 0.8, the t1/2 [7] was 0.21 h and the Clint [8] was 81.3. For the same compound, the “Dextromethorphan: compound, t1/2 normalized to dextromethorphan control” value [8] was 5.4, the t1/2 [8] was 0.285 h and the CC50 (HeLa cells) was 8.62 ± 0.02 µM. The IC50 [9] was 2.94 ± 0.76 µM, the Clint [10] was 137.4 and the “Dextromethorphan: compound, t1/2 normalized to dextromethorphan control” value [10] was 1. For the same compound, the t1/2 [10] was 0.168 h, the “Relative Peak Area/Abundance HLM” value [11] was 32.3% and the EC50 (Ebola virus) was greater than 12.3 µM. It also gave an IC50 (SARS-CoV-2; [23]) of less than 0.2 µM, an IC50 (SARS-CoV-2; [24]) of roughly 0.122 µM and an IC50 [12] of 1.57 ± 0.17 µM. The CC50 (in vitro [13]) was 15 µM, the EC50 (Chikungunya virus) was 3.2 µM and the CC50 (in vitro [14]) was 6.2 µM. For the same compound, the IC50 [15] was 0.97 µM, the IC50 [16] was 0.775 ± 0.283 µM and the EC50 (EBOV Zaire) was 0.35 µM. For the same compound, the IC50 [17] was 1.48 ± 0.65 µM, the IC50 [18] was 1.41 ± 0.25 µM and the “binding to SARS-CoV-2 Spike RBD” value (SARS-CoV-2 Spike RBD) was “did not demonstrate reproducible binding”.

For `CCN(CC)CCOc1ccc2c(c1)C(=O)c1cc(OCCN(CC)CC)ccc1-2` [Tilorone], the “Relative Peak Area/Abundance GPLM” value [1] was 35.5%, the “Relative Peak Area/Abundance MLM” value [2] was 62.9% and the tolerability (Hartley guinea pigs) was “relatively well tolerated”. For the same compound, the mortality and morbidity (Hartley guinea pigs; po, 100 mg/kg) was “significant mortality and morbidity”, the “AUClast Mean” value ([19]; female) was 1340 ng·h/mL and the “AUClast Mean” value ([19]; male) was 1230 ng·h/mL. It also gave a T1/2 ([19]; male) of 13.3 h, a CC50 (Vero 76) of 32 µM and an IC50 [3] of roughly 20 µM. The Clint [4] was 10.9, the “Dextromethorphan: compound, t1/2 normalized to dextromethorphan control” value [4] was 6.5 and the t1/2 [4] was 2.118 h. For the same compound, the MTD (in vivo [20]) was 30 mg/kg, the IC50 [5] was 1.14 ± 0.38 µM and the EC50 [6] was 18 µM. The Clint [7] was 13.5, the “Dextromethorphan: compound, t1/2 normalized to dextromethorphan control” value [7] was 6.3 and the t1/2 [7] was 1.712 h. For the same compound, the Clint [8] was 113.7, the “Dextromethorphan: compound, t1/2 normalized to dextromethorphan control” value [8] was 3.9 and the t1/2 [8] was 0.203 h. It also gave a CC50 (HeLa cells) of 18 ± 3.04 µM, an IC50 [9] of 4.51 ± 1.93 µM and a Clint [10] of 14.7. The “Dextromethorphan: compound, t1/2 normalized to dextromethorphan control” value [10] was 16.9, the t1/2 [10] was 1.57 h and the “Relative Peak Area/Abundance HLM” value [11] was 54.9%. For the same compound, the EC50 (Ebola virus) was greater than 11 µM, the IC50 (SARS-CoV-2; [23]) was less than 0.2 µM and the IC50 (SARS-CoV-2; [24]) was ~0.18 µM and 0.18 µM. The EC50 (MERS coronavirus) was 3.7 µM, the IC50 [12] was 2.05 ± 0.28 µM and the CC50 (in vitro [21]) was 19 µM. The EC50 (Yellow Fever virus) was greater than 12 µM, the EC50 (Chikungunya virus) was 4.2 µM and the CC50 (in vitro [14]) was 6.5 µM. The EC50 (Poliovirus 3) was greater than 25 µM, the EC50 (Tacaribe virus) was 29 µM and the IC50 [15] was 5 µM. It also gave an EC50 (Influenza A virus H1N1) greater than 19 µM, an IC50 [16] of 1.94 ± 0.304 µM and an AUC(0-t) (in vivo [22]; female, 30 mg/kg) of 1140 ng·h/mL. For the same compound, the Cmax (in vivo [22]; female, 30 mg/kg) was 246 ng/mL, the half-life (in vivo [22]; female, 30 mg/kg) was 14.3 h and the Tmax (in vivo [22]; female, 30 mg/kg) was 0.5 h. The AUC(0-t) (in vivo [22]; female, 100 mg/kg) was 3330 ng·h/mL, the Cmax (in vivo [22]; female, 100 mg/kg) was 384 ng/mL and the half-life (in vivo [22]; female, 100 mg/kg) was 17.4 h. For the same compound, the Tmax (in vivo [22]; female, 100 mg/kg) was 1 h, the AUC(0-t) (in vivo [22]; female, 200 mg/kg) was 4680 ng·h/mL and the Cmax (in vivo [22]; female, 200 mg/kg) was 448 ng/mL. For the same compound, the Tmax (in vivo [22]; female, 200 mg/kg) was 1 h, the AUC(0-t) (in vivo [22]; male, 30 mg/kg) was 1020 ng·h/mL and the Cmax (in vivo [22]; male, 30 mg/kg) was 148 ng/mL. It also gave a half-life (in vivo [22]; male, 30 mg/kg) of 15.6 h, a Tmax (in vivo [22]; male, 30 mg/kg) of 1 h and an AUC(0-t) (in vivo [22]; male, 100 mg/kg) of 2690 ng·h/mL. For the same compound, the Cmax (in vivo [22]; male, 100 mg/kg) was 225 ng/mL, the Tmax (in vivo [22]; male, 100 mg/kg) was 1 h and the AUC(0-t) (in vivo [22]; male, 200 mg/kg) was 5750 ng·h/mL. The Cmax (in vivo [22]; male, 200 mg/kg) was 355 ng/mL, the half-life (in vivo [22]; male, 200 mg/kg) was 29 h and the Tmax (in vivo [22]; male, 200 mg/kg) was 1 h. The EC50 (EBOV Zaire) was 0.23 µM, the IC50 [17] was 1.21 ± 1.07 µM and the IC50 [18] was 1.48 ± 0.47 µM. The Kd (SARS-CoV-2 Spike RBD; pH5.2) was 0.631 µM and the Kd (SARS-CoV-2 Spike RBD; pH 7.4) was 0.339 µM.
